# Measured values published in patent US20260335345A1, “COMPOSITION FOR IMPROVING NICOTINAMIDE MONONUCLEOTIDE PRODUCTION” (MEIJI HOLDINGS CO., LTD., priority 2022, published 2026).
# Experiments:
# [1] = test system: inflammatory bowel disease; conditions: in vivo; cited from earlier work
# [2] = test system: human feces #1 to #3 (human fecal-derived gut microbiota); assay: NMN production by human fecal cultures in GAM evaluation medium with 0.5% carbohydrate (Test Example 2); format: cell-based; conditions: 37 °C, anaerobic, 12 hours; for NMN concentration in culture (FIG. 2), in words: average of human feces #1 to #3; for NMN Concentration (Avg Value): GAM medium, average of human feces #1 to #3, only substance of its classification
# Description: 1 mg of human feces (#1 to 3) collected from different individuals was added to 1 mL of GAM medium supplemented with glucose SO that the final concentration was 0.5%, and cultured at 37 °C in an anaerobic glove box for 12 hours, and then the NMN concentration in the culture solution was measured. As the GAM medium, GAM semi-fluid medium for saccharolysis (manufactured by Nissui Pharmaceutical Co., Ltd.) was dissolved in water to a predetermined concentration, filtered through a 0.8 μm filter, and autoclaved at 115 °C for 15 minutes. The NMN concentration was measured by the following method. That is, first, the supernatant obtained by centrifuging the culture solution was filtered through a 0.22 μm filter, and then the filtrate was mixed with methanol (final concentration: 80 v/v %) and allowed to stand on ice for 30 minutes. Next, the supernatant obtained by centrifuging this was dried using a centrifugal evaporator. Next, the obtained dried product was dissolved in an ammonium acetate solution and subjected to a liquid chromatograph mass spectrometer (LC-MS/MS) for analysis under the following conditions to measure the NMN concentration. (LC-MS/MS analysis conditions)
# First, each evaluation medium was prepared by adding any one of the carbohydrates shown in Table 1 below to the GAM medium (without glucose added) so that the final concentration was 0.5%. As a comparative example, an evaluation medium to which distilled water (DW) was added instead of carbohydrate was also prepared. Next, 1 mg of the same human feces #1 to #3 as in Test Example 1 was added to 1 mL of the evaluation medium, and cultured at 37 °C in an anaerobic glove box for 12 hours. After culturing, the NMN concentration in the culture solution was measured by liquid chromatograph mass spectrometer (LC-MS/MS) by the method described in Test Example 1.
# [3] = test system: human gut microbiota in human flora mice; assay: NMN concentration in feces of human flora mice given kestose (Test Example 4); format: in vivo; conditions: 5% kestose aqueous solution ad libitum
# Description: 1 mg of human feces (#1 to 3) collected from different individuals was added to 1 mL of GAM medium supplemented with glucose SO that the final concentration was 0.5%, and cultured at 37 °C in an anaerobic glove box for 12 hours, and then the NMN concentration in the culture solution was measured. As the GAM medium, GAM semi-fluid medium for saccharolysis (manufactured by Nissui Pharmaceutical Co., Ltd.) was dissolved in water to a predetermined concentration, filtered through a 0.8 μm filter, and autoclaved at 115 °C for 15 minutes. The NMN concentration was measured by the following method. […]
# Using kestose (manufactured by Meiji Food Materia Co., Ltd.), the effect of improving NMN production in the intestine (large intestine) of human flora mice, which were germ-free mice transplanted with human gut microbiota, was evaluated. […] Next, the mixed supernatant was dried using a centrifugal evaporator, the obtained dried product was dissolved in an ammonium acetate solution, filtered through a 0.22 μm filter, and then the NMN concentration in the filtrate was measured by liquid chromatograph mass spectrometer (LC-MS/MS) by the method described in Test Example 1 to calculate the NMN concentration (ng/mL) in the feces.
# [4] = cited from earlier work
# [5] = test system: aged mice; conditions: cited from earlier work
# [6] = NMN administration; cited from earlier work
# [7] = test system: aged mice; conditions: cited from earlier work; remark: listed apart in the source
# [8] = test system: mice with type II diabetes; conditions: type II diabetes induced by a high-fat diet; cited from earlier work
compound,measurement,setting,value
"NC(=O)c1ccc[n+]([C@@H]2O[C@H](COP(=O)([O-])OP(=O)(O)OC[C@H]3O[C@@H](n4cnc5c(N)ncnc54)[C@H](O)[C@@H]3O)[C@@H](O)[C@H]2O)c1 [NAD, nicotinamide adenine dinucleotide]",effect in improving inflammatory bowel disease,[1],effective in improving inflammatory bowel disease
"OC[C@H]1O[C@@](CO)(OC[C@@]2(O[C@H]3O[C@H](CO)[C@@H](O)[C@H](O)[C@H]3O)O[C@H](CO)[C@@H](O)[C@@H]2O)[C@@H](O)[C@@H]1O [kestose, 1-Kestose]","NMN concentration in culture (FIG. 2), in words",[2],higher NMN concentrations than glucose and sucrose
same,amount of NMN produced by human gut microbiota in vivo,[3],increases the amount of NMN produced by human gut microbiota in vivo
same,NMN concentration in feces vs Day 0,"[3]; Day 1, 3, and 9 (FIG. 4)","higher on Day 1, 3, and 9"
inulin,NMN Concentration (Avg Value),[2],70 ng/mL
"O=C[C@H](O)[C@@H](O)[C@H](O)[C@H](O)CO [glucose, D-Glucose]",absorption in the small intestine,[4],completely absorbed into the body in the small intestine
same,decomposition and absorption in the upper digestive tract in vivo,[4],decomposed and absorbed in the upper digestive tract in vivo
O=C[C@H](O)[C@@H](O)[C@H](O)CO [xylose],absorption in the small intestine,[4],completely absorbed into the body in the small intestine
"OC[C@H]1O[C@@H](O[C@H]2[C@H](O)[C@@H](O)C(O)O[C@@H]2CO)[C@H](O)[C@@H](O)[C@@H]1O (stereo partly drawn) [cellobiose, D-Cellobiose]","NMN concentration in culture (FIG. 2), in words",[2],higher NMN concentrations than glucose and sucrose
"OC[C@H]1O[C@@](CO)(O[C@H]2O[C@H](CO)[C@@H](O)[C@H](O)[C@H]2O)[C@@H](O)[C@@H]1O [sucrose, D-Sucrose]",decomposition and absorption in the upper digestive tract in vivo,[4],decomposed and absorbed in the upper digestive tract in vivo
"NC(=O)c1ccc[n+]([C@@H]2O[C@H](COP(=O)([O-])O)[C@@H](O)[C@H]2O)c1 [NMN, β-nicotinamide mononucleotide]",effects of NMN administration in aged mice,[5],"suppressed age-related obesity, improved energy metabolism, and improved insulin resistance, lipid metabolism, eye function, bone density, and immune function"
same,age-related changes in gene expression,"[5]; skeletal muscle, fat, and liver","suppression of age-related changes in gene expression in skeletal muscle, fat, and liver"
same,age-related declines in organ function and dementia of the Alzheimer type,[6],"improved age-related declines in liver function, renal function, skeletal muscle function, and cardiac function, as well as dementia of the Alzheimer type"
same,constipation,[7],improved constipation
same,"gene expression related to oxidative stress, inflammatory response, and circadian rhythm",[8],"restored gene expression related to oxidative stress, inflammatory response, and circadian rhythm"
same,"glucose tolerance, hepatic insulin sensitivity",[8],improved glucose tolerance disorder and hepatic insulin sensitivity
"OC[C@H]1O[C@@H](O[C@H]2[C@H](O)[C@@H](O)[C@@H](O[C@]3(CO)O[C@H](CO)[C@@H](O)[C@@H]3O)O[C@@H]2CO)[C@H](O)[C@@H](O)[C@H]1O [lactosucrose, Lactosucrose]","NMN concentration in culture (FIG. 2), in words",[2],higher NMN concentrations than glucose and sucrose
"CC(=O)N[C@H]1[C@H]([C@H](O)[C@H](O)CO)O[C@@](O[C@H]2[C@@H](O)[C@@H](CO)O[C@@H](O[C@H]3[C@H](O)[C@@H](O)C(O)O[C@@H]3CO)[C@@H]2O)(C(=O)O)C[C@@H]1O (some centres unmarked) [sialyllactose, 3′-Sialyllactose]","NMN concentration in culture (FIG. 2), in words",[2],relatively low NMN concentration
"O=C(CO)[C@@H](O)[C@@H](O)[C@H](O)CO [Tagatose, D-Tagatose]",NMN Concentration (Avg Value),[2],100 ng/mL
"OC[C@H]1O[C@H](OC[C@H]2O[C@H](O[C@]3(CO)O[C@H](CO)[C@@H](O)[C@@H]3O)[C@H](O)[C@@H](O)[C@@H]2O)[C@H](O)[C@@H](O)[C@H]1O [raffinose, Raffinose]","NMN concentration in culture (FIG. 2), in words",[2],higher NMN concentrations than glucose and sucrose
